In PMC6940745 (International Journal of Molecular Sciences, 2019):
pEC50: −log10 of the molar value. Where a SMILES comes first, the peptide text is derived from it. [ ]: non-standard residue; d: D form. The star is where a group is joined. Bz = O=C(c1ccccc1)*; NPr2 = CCCN(CCC)*

Assays:
OP3R = target: T1, OP3R (Homo sapiens, UniProt P35372); assay: OP3R (mu opioid) activation, GTPγS scintillation proximity assay; assay type: biochemical; details: eight concentrations, 0.01 to 100,000 nM
T1 construct: host or cells: CHO-K1 (membrane preparations)
T1 sequence (P35372 whole entry): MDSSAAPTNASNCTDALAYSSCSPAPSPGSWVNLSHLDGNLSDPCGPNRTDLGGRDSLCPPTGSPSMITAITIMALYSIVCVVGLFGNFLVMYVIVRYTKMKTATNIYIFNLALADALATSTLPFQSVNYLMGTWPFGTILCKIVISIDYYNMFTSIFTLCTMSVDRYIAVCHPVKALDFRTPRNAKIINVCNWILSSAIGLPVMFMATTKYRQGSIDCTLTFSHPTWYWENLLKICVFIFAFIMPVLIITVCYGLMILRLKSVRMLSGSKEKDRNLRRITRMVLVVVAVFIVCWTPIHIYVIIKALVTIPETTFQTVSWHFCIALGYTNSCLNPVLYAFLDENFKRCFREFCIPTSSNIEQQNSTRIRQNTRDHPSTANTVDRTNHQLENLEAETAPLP
Protocol: (§1) Melatonin (MT1R and MT2R) and opioid receptor (OP1R, OP2R, and OP3R, corresponding to human delta, kappa, and mu opioid receptors) activation assays were performed by means of GTPγS scintillation proximity assays. For agonist testing, membrane preparations from CHO-K1 cells expressing each receptor (EuroscreenFast, Gosselies, Belgium) were mixed with guanosine diphosphate (GDP) (v/v). In parallel, GTPγ[^35S] (PerkinElmer, NEG030X, 0.1 nM final assay concentration) was mixed with PVT-WGA beads (Perkin Elmer, RPNQ001, 0.5 mg/well final assay density) (v/v) just before starting the reaction. The following reagents were then successively added in the wells of an Optiplate (Perkin Elmer): A total of 50 µL of test or reference ligand diluted in assay buffer, 10 µL of assay buffer (20 mM HEPES pH 7.4; 100–200 mM NaCl, 10 µg/mL saponin, MgCl2 at optimized concentration for the specific receptor, 0%–0.1% BSA), 20 µL of the membranes: GDP mix, and 20 µL of the GTPγ[^35S]: Beads mix. The plates were covered with a top seal, mixed on an orbital shaker for 2 min, and then incubated for 1 h at room temperature. Then the plates were centrifuged for 10 min at 2000 rpm, incubated at room temperature for 1 h, and counted for 1 min/well with a PerkinElmer TopCount™ reader.

MC4R = target: T2, MC4R (Homo sapiens, UniProt P32245); assay: MC4R activation, cAMP HTRF assay in CHO-K1 cells; assay type: cell-based; details: eight concentrations, 0.01 to 100,000 nM
T2 construct: host or cells: CHO-K1
T2 sequence (P32245 whole entry): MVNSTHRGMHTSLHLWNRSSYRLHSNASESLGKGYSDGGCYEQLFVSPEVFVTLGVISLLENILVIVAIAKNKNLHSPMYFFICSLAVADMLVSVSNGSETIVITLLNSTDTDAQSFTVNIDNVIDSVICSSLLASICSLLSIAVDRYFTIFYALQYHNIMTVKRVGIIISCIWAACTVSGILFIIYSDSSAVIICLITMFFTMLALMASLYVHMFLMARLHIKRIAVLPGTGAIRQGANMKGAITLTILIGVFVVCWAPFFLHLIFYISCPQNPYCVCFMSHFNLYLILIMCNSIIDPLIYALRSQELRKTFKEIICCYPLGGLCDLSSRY
Protocol: (§2) MCR-activation assays were performed by means of a cAMP HTRF (homogeneous time resolved fluorescence) assay for Gs-coupled receptors (cAMP Gs dynamic kit, Cisbio bioassays, 62AM4PEC). CHO-K1 cells expressing human recombinant MC1 receptor (EuroscreenFast, Gosselies, Belgium) (or MC2R, MC3R, MC4R, MC5R) were grown prior to the test in media without antibiotic. They were detached by gentle flushing with PBS-EDTA (5 mM EDTA), recovered by centrifugation, and resuspended in assay buffer (5 mM KCl, 1.25 mM MgSO4, 124 mM NaCl, 25 mM HEPES, 13.3 mM Glucose, 1.25 mM KH2PO4, 1.45 mM CaCl2, 0.5 g/L BSA, supplemented with 1 mM IBMX). Dose response curves were performed in parallel with the reference compounds. For agonist test (96-well), 12 µL of cells were mixed with 12 µL of the test compound diluted at increasing concentrations in assay buffer, and then incubated for 30 min at room temperature. After addition of the lysis buffer and 1 h incubation, fluorescence signal was measured, according to the manufacturer’s specifications, with the homogeneous time resolved fluorescence (HTRF) kit.

MC5R = target: T3, MC5R (Homo sapiens, UniProt P33032); assay: MC5R activation, cAMP HTRF assay in CHO-K1 cells; assay type: cell-based
T3 construct: host or cells: CHO-K1
T3 sequence (P33032 whole entry): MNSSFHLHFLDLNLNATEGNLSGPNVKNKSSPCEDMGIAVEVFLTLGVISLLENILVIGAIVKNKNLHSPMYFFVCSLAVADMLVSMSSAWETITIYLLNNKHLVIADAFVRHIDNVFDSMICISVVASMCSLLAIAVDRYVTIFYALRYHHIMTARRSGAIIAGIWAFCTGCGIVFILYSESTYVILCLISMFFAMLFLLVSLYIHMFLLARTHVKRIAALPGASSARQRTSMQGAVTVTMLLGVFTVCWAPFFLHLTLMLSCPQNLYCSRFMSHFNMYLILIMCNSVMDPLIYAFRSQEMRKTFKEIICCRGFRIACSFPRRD
Protocol: as §2

OP2R = target: T4, OP2R (Homo sapiens, UniProt P41145); assay: OP2R (kappa opioid) activation, GTPγS scintillation proximity assay; assay type: biochemical; details: eight concentrations, 0.01 to 100,000 nM
T4 construct: host or cells: CHO-K1 (membrane preparations)
T4 sequence (P41145 whole entry): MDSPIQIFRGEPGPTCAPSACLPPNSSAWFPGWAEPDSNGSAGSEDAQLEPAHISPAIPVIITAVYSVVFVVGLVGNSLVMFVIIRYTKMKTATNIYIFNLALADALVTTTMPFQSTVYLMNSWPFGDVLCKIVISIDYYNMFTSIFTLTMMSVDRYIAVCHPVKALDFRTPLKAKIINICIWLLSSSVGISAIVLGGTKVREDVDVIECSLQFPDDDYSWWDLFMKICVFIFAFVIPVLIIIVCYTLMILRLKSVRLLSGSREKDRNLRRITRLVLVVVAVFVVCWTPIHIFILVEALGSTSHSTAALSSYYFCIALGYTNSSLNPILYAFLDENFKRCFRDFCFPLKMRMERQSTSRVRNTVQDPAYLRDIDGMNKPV
Protocol: as §1

[1] = target: T5, human recombinant MC1 receptor (Homo sapiens, UniProt Q01726); assay: MC1R activation, cAMP HTRF assay in CHO-K1 cells; assay type: cell-based
T5 construct: host or cells: CHO-K1
T5 sequence (Q01726 whole entry): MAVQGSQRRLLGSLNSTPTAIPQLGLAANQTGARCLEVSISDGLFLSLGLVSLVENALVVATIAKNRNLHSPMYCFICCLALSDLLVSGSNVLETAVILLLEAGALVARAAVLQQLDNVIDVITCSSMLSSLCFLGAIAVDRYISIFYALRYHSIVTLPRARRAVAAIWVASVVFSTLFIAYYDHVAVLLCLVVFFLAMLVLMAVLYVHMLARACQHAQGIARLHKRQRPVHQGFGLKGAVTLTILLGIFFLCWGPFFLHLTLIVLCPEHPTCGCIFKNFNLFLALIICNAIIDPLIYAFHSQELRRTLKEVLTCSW
Protocol: as §2

MITF = MITF protein expression in human skin ex vivo (immunohistochemistry); assay type: cell-based; details: topical 30, 100 and 200 µM, six days; p < 0.05
Protocol: (§3) Following declaration of Helsinki principles (DoH-Oct2013, World Medical Association, Ferney-Voltaire, France), human skin samples were obtained from elective plastic surgery after informed consent was obtained. For the two experiments shown in Figure 2, Figure 3 and Figure 4, we had one person with an individual topology angle (ITA°) of 18, and one person with an ITA° of 39 [69]. The skin samples were cut in pieces of 8 × 3 mm and cultured up to day 6. Skin samples were cultured in an air–liquid interface in a perforated ring of stainless steel in contact with culture medium (modified Williams’ E medium). The culture medium was renewed every three days (i.e., day 0–3). Compounds were added daily in DMSO at 4 µL volume. At day 6, the skin samples were fixed in formalin, embedded in paraplast, and cut at the microtome for histochemical staining and consequent image analysis. Six skin biopsies were used for each single treatment.
(§4) Twelve skin sections from the ex vivo melanogenesis experiment above were immunoassayed with the selected antibodies (TYR, Thermo Scientific #MS-800-P0 (Thermo Scientific, Waltham, MA, USA); TYRP-1, Covance #SIG-38150 (Covance Inc., Princeton, NJ, USA), MITF, Abcam #ab80651 (Abcam plc, Cambridge, UK). The number of positive cells within the epidermis was counted and the value was normalized upon the length of the basal lamina, thus obtaining a score. […]

[2] = system: B16 murine melanoma cells; assay: Total melanin synthesis in mouse melanoma cells; assay type: cell-based; details: 72 h incubation
Protocol: B16 murine melanoma cells, which are highly responsive towards stimulation with alpha-melanocyte stimulating hormone (alpha-MSH), were grown in Dulbecco’s modified eagle medium (DMEM) with 1 g/L glucose supplemented with 3 g/L glucose, 2 mM L-glutamine, 50 U/mL Penicillin, 50 µg/mL Streptomycin, and 10% fetal calf serum. They were kept at 37 °C in a 5% CO2 atmosphere. Cells were grown for 24 h and then medium was replaced with medium containing the test or reference (NDP-alpha-MSH) compounds. After 72 h, total (intracellular and extracellular) melanin content was determined by absorbance spectroscopy at 405 nm. The results were quantified against a melanin standard curve.
Figure 1 Total melanin synthesis in mouse melanoma cells stimulated with MC1R-agonist peptides. MC1R-agonist peptides were incubated at various concentrations together with the near confluent mouse melanoma cell line B16F10. NDP-alpha-MSH at 100 nM was used as the reference and set to 100% melanin (red line). Error bars represent standard error of the mean of three experiments.

TYR = TYR protein expression in human skin ex vivo (immunohistochemistry); assay type: cell-based; details: topical 30, 100 and 200 µM, six days; p = 0.06
Protocol: as §3, §4

MC3R = target: T6, MC3R (Homo sapiens, UniProt P41968); assay: MC3R activation, cAMP HTRF assay in CHO-K1 cells; assay type: cell-based; details: eight concentrations, 0.01 to 100,000 nM
T6 construct: host or cells: CHO-K1
T6 sequence (P41968 whole entry): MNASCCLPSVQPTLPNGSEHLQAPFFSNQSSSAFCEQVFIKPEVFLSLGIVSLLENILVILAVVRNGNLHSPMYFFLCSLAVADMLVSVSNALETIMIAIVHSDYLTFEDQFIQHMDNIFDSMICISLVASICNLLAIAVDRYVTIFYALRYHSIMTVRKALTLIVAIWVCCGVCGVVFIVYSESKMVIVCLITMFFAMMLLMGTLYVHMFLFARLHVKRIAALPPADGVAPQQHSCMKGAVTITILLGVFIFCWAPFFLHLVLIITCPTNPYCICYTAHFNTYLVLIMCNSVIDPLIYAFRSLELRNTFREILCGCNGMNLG
Protocol: as §2

CCCN(CCC)C(=O)[C@@H](Cc1c[nH]c2ccccc12)NC(=O)[C@H](CCCNC(=N)N)NC(=O)[C@@H](Cc1ccccc1)NC(=O)[C@H](Cc1c[nH]cn1)NC(=O)CNC(=O)c1ccccc1 [Peptide 4] (Bz-GH[dF]R[dW]-NPr2)
pEC50 (OP3R): < 4.00
pEC50 (MC4R): 6.87
pEC50 (MC5R; eight concentrations, 0.01 to 100,000 nM): < 4.00
Activation of MC5R (MC5R; up to 100 µM): no significant activation
pEC50 (OP2R): < 4.00
pEC50 [1]: 9.38
Maximal induction of MITF protein expression vs vehicle (MITF): 79%
Concentration at which maximal melanin synthesis activity comparable to 100 nM NDP-alpha-MSH is reached [2]: around 12.3 nM
Maximal induction of TYR protein expression vs vehicle (TYR): 44%
pEC50 (MC3R): 6.06
